Test results as given in patent US20250034147A1, “MDM2 DEGRADERS AND USES THEREOF” (Kymera Therapeutics, Inc., priority 2021, published 2025).

Biological target: T1, HiBiT-tagged MDM2 (Homo sapiens, UniProt Q00987)
T1 construct: expressed in transfected cells
Experiment: MDM2 HiBit HEK293T degradation
Type: cell-based
Conditions: HEK293T cells stably expressing C-terminally HiBiT-tagged MDM2; 4 h; read-out: MDM2 HiBit HEK293T degradation 4 h: Average external-Abs DC50
Method: HEK293T cells were grown overnight to 70-80% confluency in a 6-well plate in complete media (DMEM 10% FBS) in a 37° C. incubator with 5% CO2. Cells were transfected with 1 micrograms of C- or N-terminally HiBiT-tagged MDM2 constructs using Fugene 6 transfection reagent (Promega) as per manufacturer protocol. After overnight incubation at 37° C., growth media within the wells was replaced with selection media (DMEM+10% FBS+1 microgram/ml final concentration of Puromycin). Puromycin (selection antibiotic) concentrations required for complete cell kill were determined previously. Cells were monitored for the next 48h-96h to select for positively transfected cells. Surviving colonies were pooled and expanded in selection media. Expanded pools of HEK293T cells stably expressing C- and N-terminally HiBiT-tagged MDM2, were characterized using a MDM2 tool degrader and HaloPROTAC3 as positive control. HEK293T cells expressing C-terminally HiBiT-tagged MDM2 were subsequently used for assessment of degradation potencies for MDM2 degraders.
The letter codes for MDM2 degradation potency (DC50) include: A (<10 nM), B […], C (>100-1000 nM), and D (>1000 nM).

T1 sequence (Q00987 whole entry): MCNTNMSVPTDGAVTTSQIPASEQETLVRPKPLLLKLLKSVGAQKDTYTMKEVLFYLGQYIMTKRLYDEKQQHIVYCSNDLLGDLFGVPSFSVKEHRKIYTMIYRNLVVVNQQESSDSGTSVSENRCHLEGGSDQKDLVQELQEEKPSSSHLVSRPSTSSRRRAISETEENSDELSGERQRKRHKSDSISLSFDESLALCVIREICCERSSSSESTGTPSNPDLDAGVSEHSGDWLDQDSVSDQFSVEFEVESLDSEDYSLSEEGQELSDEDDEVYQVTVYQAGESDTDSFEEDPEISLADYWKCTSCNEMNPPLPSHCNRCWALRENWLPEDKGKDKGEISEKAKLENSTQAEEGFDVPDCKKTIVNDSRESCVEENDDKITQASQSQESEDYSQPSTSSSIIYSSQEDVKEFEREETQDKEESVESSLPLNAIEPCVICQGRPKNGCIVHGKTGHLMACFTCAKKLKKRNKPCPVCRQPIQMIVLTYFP

Structure (SMILES)	DC50 [nM]
Cn1c(=O)n(C2CCC(=O)NC2=O)c2ccc(O[C@@H]3C[C@@H](C(=O)O)N(C(=O)[C@H]4CC[C@H](NC(=O)[C@@H]5NC6(CCCCC6)[C@@]6(C(=O)Nc7cc(Cl)ccc76)[C@H]5c5cccc(Cl)c5F)CC4)C3)cc21 (stereo partly drawn) [I-143]	10 to 100
Cn1c(=O)n(C2CCC(=O)NC2=O)c2ccc(C3CCN(CCC(=O)N4CCC(NC(=O)[C@@H]5NC6(CCCCC6)[C@@]6(C(=O)Nc7cc(Cl)ccc76)[C@H]5c5cccc(Cl)c5F)CC4)CC3)cc21 (stereo partly drawn) [I-146]	< 10
Cn1c(=O)n(C2CCC(=O)NC2=O)c2ccc(CN3CCN(CCCN4CCC(NC(=O)[C@@H]5NC6(CCCCC6)[C@@]6(C(=O)Nc7cc(Cl)ccc76)[C@H]5c5cccc(Cl)c5F)CC4)CC3)cc21 (stereo partly drawn) [I-147]	10 to 100
Cc1ncsc1-c1ccc(CNC(=O)[C@@H]2C[C@@H](O)CN2C(=O)[C@@H](NC(=O)CCCCC2CCN(C(=O)[C@H]3CC[C@H](NC(=O)[C@@H]4NC5(CCCCC5)[C@@]5(C(=O)Nc6cc(Cl)ccc65)[C@H]4c4cccc(Cl)c4F)CC3)CC2)C(C)(C)C)cc1 [I-148]	> 1000
Cc1ncsc1-c1ccc(CNC(=O)[C@@H]2C[C@@H](O)CN2C(=O)[C@@H](NC(=O)C2(F)CC2)C(C)(C)C)c(OCCCCCCCCNC(=O)[C@H]2CC[C@H](NC(=O)[C@@H]3NC4(CCCCC4)[C@@]4(C(=O)Nc5cc(Cl)ccc54)[C@H]3c3cccc(Cl)c3F)CC2)c1 [I-149]	> 1000
Cn1c(=O)n(C2CCC(=O)NC2=O)c2ccc(CCN3CCN(CCN4CCC(NC(=O)[C@@H]5NC6(CCCCC6)[C@@]6(C(=O)Nc7cc(Cl)ccc76)[C@H]5c5cccc(Cl)c5F)CC4)CC3)cc21 (stereo partly drawn) [I-151]	< 10
Cn1c(=O)n(C2CCC(=O)NC2=O)c2cccc(C3CCN(CCN4CCC(NC(=O)[C@@H]5NC6(CCCCC6)[C@@]6(C(=O)Nc7cc(Cl)ccc76)[C@H]5c5cccc(Cl)c5F)CC4)CC3)c21 (stereo partly drawn) [I-152]	< 10
Cn1c(=O)n(C2CCC(=O)NC2=O)c2ccc(-c3ccc(CCN4CCC(NC(=O)[C@@H]5NC6(CCCCC6)[C@@]6(C(=O)Nc7cc(Cl)ccc76)[C@H]5c5cccc(Cl)c5F)CC4)cc3)cc21 (stereo partly drawn) [I-154]	< 10
Cn1c(=O)n(C2CCC(=O)NC2=O)c2ccc(C3CCN([C@H]4CC[C@H](N5CCC(NC(=O)[C@@H]6NC7(CCCCC7)[C@@]7(C(=O)Nc8cc(Cl)ccc87)[C@H]6c6cccc(Cl)c6F)CC5)CC4)CC3)cc21 (stereo partly drawn) [I-155]	< 10
O=C1CCN(c2ccc(CCCCN3CCN(C(=O)[C@H]4CC[C@H](NC(=O)[C@@H]5NC6(CCCCC6)[C@@]6(C(=O)Nc7cc(Cl)ccc76)[C@H]5c5cccc(Cl)c5F)CC4)CC3)cc2)C(=O)N1 [I-156]	> 1000
Cn1c(=O)n(C2CCC(=O)NC2=O)c2ccc(C3CCN(C(=O)CN4CCC(NC(=O)[C@@H]5NC6(CCC(C)(C)CC6)[C@@]6(C(=O)Nc7cc(Cl)ccc76)[C@H]5c5ccnc(Cl)c5F)CC4)CC3)cc21 (stereo partly drawn) [I-160]	< 10
O=C1CCN(c2cnc3cc(C4CCN(C(=O)CN5CCC(NC(=O)[C@@H]6NC7(CCCCC7)[C@@]7(C(=O)Nc8cc(Cl)ccc87)[C@H]6c6cccc(Cl)c6F)CC5)CC4)ccn23)C(=O)N1 [I-164]	100 to 1000
Cn1c(=O)n(C2CCC(=O)NC2=O)c2ccc(CN3CCN(CCN4CCC(NC(=O)[C@@H]5NC6(CCCCC6)[C@@]6(C(=O)Nc7cc(Cl)ccc76)[C@H]5c5cccc(Cl)c5F)CC4)CC3)cc21 (stereo partly drawn) [I-167]	10 to 100
Cn1c(=O)n(C2CCC(=O)NC2=O)c2ccc(C3CCN(C[C@H]4CC[C@H](NC(=O)[C@@H]5NC6(CCCCC6)[C@@]6(C(=O)Nc7cc(Cl)ccc76)[C@H]5c5cccc(Cl)c5F)CC4)C(C(=O)O)C3)cc21 (stereo partly drawn) [I-168]	10 to 100
O=C1CCN(c2cnc3cc(N4CCN(CCN5CCC(NC(=O)[C@@H]6NC7(CCCCC7)[C@@]7(C(=O)Nc8cc(Cl)ccc87)[C@H]6c6cccc(Cl)c6F)CC5)CC4)ccn23)C(=O)N1 [I-169]	10 to 100
Cn1c(=O)n(C2CCC(=O)NC2=O)c2ccc(C3CCN(Cc4ccc(NC(=O)[C@@H]5NC6(CCCCC6)[C@@]6(C(=O)Nc7cc(Cl)ccc76)[C@H]5c5cccc(Cl)c5F)cc4C(=O)O)CC3)cc21 (stereo partly drawn) [I-171]	10 to 100
Cn1c(=O)n(C2CCC(=O)NC2=O)c2ccc(C3(O)CCN(C[C@H]4CC[C@H](NC(=O)[C@@H]5NC6(CCCCC6)[C@@]6(C(=O)Nc7cc(Cl)ccc76)[C@H]5c5cccc(Cl)c5F)CC4)CC3)cc21 (stereo partly drawn) [I-194]	< 10
Cn1c(=O)n(C2CCC(=O)NC2=O)c2ccc(CN3CCN(C[C@H]4CC[C@H](NC(=O)[C@@H]5NC6(CCCCC6)[C@@]6(C(=O)Nc7cc(Cl)ccc76)[C@H]5c5cccc(Cl)c5F)CC4)C(C(=O)O)C3)cc21 (stereo partly drawn) [I-196]	10 to 100

Structure (SMILES)	DC50 [nM]
Cn1c(=O)n(C2CCC(=O)NC2=O)c2ccc(CCN3CCN(C[C@H]4CC[C@H](NC(=O)[C@@H]5NC6(CCCCC6)[C@@]6(C(=O)Nc7cc(Cl)ccc76)[C@H]5c5cccc(Cl)c5F)CC4)C(C(=O)O)C3)cc21 (stereo partly drawn) [I-197]	< 10
Cn1c(=O)n(C2CCC(=O)NC2=O)c2ccc(CCCO[C@@H]3C[C@@H](C(=O)O)N(C[C@H]4CC[C@H](NC(=O)[C@@H]5NC6(CCCCC6)[C@@]6(C(=O)Nc7cc(Cl)ccc76)[C@H]5c5cccc(Cl)c5F)CC4)C3)cc21 (stereo partly drawn) [I-198]	100 to 1000
Cn1c(=O)n(C2CCC(=O)NC2=O)c2ccc(CCCO[C@@H]3C[C@H](C(=O)O)N(C[C@H]4CC[C@H](NC(=O)[C@@H]5NC6(CCCCC6)[C@@]6(C(=O)Nc7cc(Cl)ccc76)[C@H]5c5cccc(Cl)c5F)CC4)C3)cc21 (stereo partly drawn) [I-199]	10 to 100
Cn1c(=O)n(C2CCC(=O)NC2=O)c2ccc(O[C@@H]3C[C@@H](C(=O)O)N(C[C@H]4CC[C@H](NC(=O)[C@@H]5NC6(CCCCC6)[C@@]6(C(=O)Nc7cc(Cl)ccc76)[C@H]5c5cccc(Cl)c5F)CC4)C3)cc21 (stereo partly drawn) [I-200]	10 to 100
Cn1c(=O)n(C2CCC(=O)NC2=O)c2ccc(CCCN3CCN(C[C@H]4CC[C@H](NC(=O)[C@@H]5NC6(CCCCC6)[C@@]6(C(=O)Nc7cc(Cl)ccc76)[C@H]5c5cccc(Cl)c5F)CC4)C(C(=O)O)C3)cc21 (stereo partly drawn) [I-202]	< 10
Cn1c(=O)n(C2CCC(=O)NC2=O)c2ccc(N3CCC(CC4(C(=O)O)CCN(C[C@H]5CC[C@H](NC(=O)[C@@H]6NC7(CCCCC7)[C@@]7(C(=O)Nc8cc(Cl)ccc87)[C@H]6c6cccc(Cl)c6F)CC5)CC4)CC3)cc21 (stereo partly drawn) [I-203]	< 10
Cc1ncsc1-c1ccc(CNC(=O)[C@@H]2C[C@@H](O)CN2C(=O)[C@@H](NC(=O)C2(F)CC2)C(C)(C)C)c(OCCCC2CCN(C[C@H]3CC[C@H](NC(=O)[C@@H]4NC5(CCCCC5)[C@@]5(C(=O)Nc6cc(Cl)ccc65)[C@H]4c4cccc(Cl)c4F)CC3)CC2)c1 [I-204]	> 1000
O=C(O)Cn1c(=O)n(C2CCC(=O)NC2=O)c2ccc(C3CCN(C[C@H]4CC[C@H](NC(=O)[C@@H]5NC6(CCCCC6)[C@@]6(C(=O)Nc7cc(Cl)ccc76)[C@H]5c5cccc(Cl)c5F)CC4)CC3)cc21 (stereo partly drawn) [I-206]	10 to 100
O=C1CCN(c2ccc(CCCCN3CCN(C[C@H]4CC[C@H](NC(=O)[C@@H]5NC6(CCCCC6)[C@@]6(C(=O)Nc7cc(Cl)ccc76)[C@H]5c5cccc(Cl)c5F)CC4)CC3)cc2)C(=O)N1 [I-208]	> 1000
Cn1c(=O)n(C2CCC(=O)NC2=O)c2ccc(CC3(CC(=O)O)CCN(C[C@H]4CC[C@H](NC(=O)[C@@H]5NC6(CCCCC6)[C@@]6(C(=O)Nc7cc(Cl)ccc76)[C@H]5c5cccc(Cl)c5F)CC4)CC3)cc21 (stereo partly drawn) [I-210]	10 to 100
Cn1c(=O)n(C2CCC(=O)NC2=O)c2ccc(CCCCCN3CCN(C[C@H]4CC[C@H](NC(=O)[C@@H]5NC6(CCCCC6)[C@@]6(C(=O)Nc7cc(Cl)ccc76)[C@H]5c5cccc(Cl)c5F)CC4)[C@H](C(=O)O)C3)cc21 (stereo partly drawn) [I-211]	< 10
Cn1c(=O)n(C2CCC(=O)NC2=O)c2ccc(CCCCCN3CCN(C[C@H]4CC[C@H](NC(=O)[C@@H]5NC6(CCCCC6)[C@@]6(C(=O)Nc7cc(Cl)ccc76)[C@H]5c5cccc(Cl)c5F)CC4)[C@@H](C(=O)O)C3)cc21 (stereo partly drawn) [I-212]	< 10
Cn1c(=O)n(C2CCC(=O)NC2=O)c2ccc(CCCCN3CCN(C[C@H]4CC[C@H](NC(=O)[C@@H]5NC6(CCCCC6)[C@@]6(C(=O)Nc7cc(Cl)ccc76)[C@H]5c5cccc(Cl)c5F)CC4)[C@H](C(=O)O)C3)cc21 (stereo partly drawn) [I-213]	< 10
Cn1c(=O)n(C2CCC(=O)NC2=O)c2ccc(CCCCN3CCN(C[C@H]4CC[C@H](NC(=O)[C@@H]5NC6(CCCCC6)[C@@]6(C(=O)Nc7cc(Cl)ccc76)[C@H]5c5cccc(Cl)c5F)CC4)[C@@H](C(=O)O)C3)cc21 (stereo partly drawn) [I-214]	< 10
Cn1c(=O)n(C2CCC(=O)NC2=O)c2ccc(CCCN3CCN(C[C@H]4CC[C@H](NC(=O)[C@@H]5NC6(CCCCC6)[C@@]6(C(=O)Nc7cc(Cl)ccc76)[C@H]5c5cccc(Cl)c5F)CC4)[C@@H](C(=O)O)C3)cc21 (stereo partly drawn) [I-216]	< 10
Cn1c(=O)n(C2CCC(=O)NC2=O)c2ccc(CCCN3CCN(C[C@H]4CC[C@H](NC(=O)[C@@H]5NC6(CCCCC6)[C@@]6(C(=O)Nc7cc(Cl)ccc76)[C@H]5c5cccc(Cl)c5F)CC4)[C@@H](C(=O)NS(C)(=O)=O)C3)cc21 (stereo partly drawn) [I-222]	< 10
Cn1c(=O)n(C2CCC(=O)NC2=O)c2ccc(CCCN3CCN(C[C@H]4CC[C@H](NC(=O)[C@@H]5NC6(CCC(C)(C)CC6)[C@@]6(C(=O)Nc7cc(Cl)ccc76)[C@H]5c5ccnc(Cl)c5F)CC4)[C@@H](C(=O)O)C3)cc21 (stereo partly drawn) [I-223]	< 10
Cn1c(=O)n(C2CCC(=O)NC2=O)c2ccc(C3CCN(CCN4CCN(C[C@H]5CC[C@H](NC(=O)[C@@H]6NC7(CCCCC7)[C@@]7(C(=O)Nc8cc(Cl)ccc87)[C@H]6c6cccc(Cl)c6F)CC5)[C@H](C(=O)O)C4)CC3)cc21 (stereo partly drawn) [I-227]	< 10
